# From PubChem BioAssay (NCI)
#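 How tested: cells in 96-well plates exposed to compound for 48 hours at five concentrations. At the GI50, growth is halved. TGI: total growth inhibition.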
# Tests used:
# Assay in all cases: growth of human tumour cells (NCI), 48 h
# 786-0 renal = test system: 786-0 renal
# A498 renal = test system: A498 renal
# A549 NSCLC = test system: A549 NSCLC
# ACHN renal = test system: ACHN renal
# BT-549 breast = test system: BT-549 breast
# CAKI-1 renal = test system: CAKI-1 renal
# CCRF-CEM leukemia = test system: CCRF-CEM leukemia
# COLO 205 colon = test system: COLO 205 colon
# DU-145 prostate = test system: DU-145 prostate
# EKVX NSCLC = test system: EKVX NSCLC
# HCC-2998 colon = test system: HCC-2998 colon
# HCT-116 colon = test system: HCT-116 colon
# HCT-15 colon = test system: HCT-15 colon
# HL-60(TB) leukemia = test system: HL-60(TB) leukemia
# HOP-62 NSCLC = test system: HOP-62 NSCLC
# HOP-92 NSCLC = test system: HOP-92 NSCLC
# HS 578T breast = test system: HS 578T breast
# HT29 colon = test system: HT29 colon
# IGROV1 ovarian = test system: IGROV1 ovarian
# K-562 leukemia = test system: K-562 leukemia
# KM12 colon = test system: KM12 colon
# LOX IMVI melanoma = test system: LOX IMVI melanoma
# M14 melanoma = test system: M14 melanoma
# MALME-3M melanoma = test system: MALME-3M melanoma
# MCF7 breast = test system: MCF7 breast
# MDA-MB-231 breast = test system: MDA-MB-231 breast
# MDA-MB-435 = test system: MDA-MB-435
# MOLT-4 leukemia = test system: MOLT-4 leukemia
# NCI-H226 lung = test system: NCI-H226 lung
# NCI-H23 lung = test system: NCI-H23 lung
# NCI-H460 lung = test system: NCI-H460 lung
# NCI-H522 lung = test system: NCI-H522 lung
# NCI/ADR-RES ovarian = test system: NCI/ADR-RES ovarian
# OVCAR-3 ovarian = test system: OVCAR-3 ovarian
# OVCAR-4 ovarian = test system: OVCAR-4 ovarian
# OVCAR-5 ovarian = test system: OVCAR-5 ovarian
# OVCAR-8 ovarian = test system: OVCAR-8 ovarian
# PC-3 prostate = test system: PC-3 prostate
# RPMI-8226 leukemia = test system: RPMI-8226 leukemia
# RXF 393 renal = test system: RXF 393 renal
# SK-MEL-2 melanoma = test system: SK-MEL-2 melanoma
# SK-MEL-28 melanoma = test system: SK-MEL-28 melanoma
# SK-MEL-5 melanoma = test system: SK-MEL-5 melanoma
# SK-OV-3 ovarian = test system: SK-OV-3 ovarian
# SN12C renal = test system: SN12C renal
# SR leukemia = test system: SR leukemia
# SW-620 colon = test system: SW-620 colon
# T-47D breast = test system: T-47D breast
# TK-10 renal = test system: TK-10 renal
# UACC-257 melanoma = test system: UACC-257 melanoma
# UACC-62 melanoma = test system: UACC-62 melanoma
# UO-31 renal = test system: UO-31 renal
# SF-268 CNS = test system: SF-268 CNS
# SF-295 CNS = test system: SF-295 CNS
# SF-539 CNS = test system: SF-539 CNS
# SNB-19 CNS = test system: SNB-19 CNS
# SNB-75 CNS = test system: SNB-75 CNS
# U251 CNS = test system: U251 CNS
compound,measurement,setting,value
CN(C)C1C(=O)C(C(N)=O)=C(O)C2(O)C(=O)C3=C(O)c4c(O)cccc4C(C)(O)C3CC12.[Cl][Sb]([Cl])[Cl] (centres undefined),GI50,786-0 renal,4.14 µM
same,TGI,786-0 renal,17.6 µM
same,GI50,A498 renal,2.96 µM
same,TGI,A498 renal,11.4 µM
same,GI50,A549 NSCLC,3.47 µM
same,TGI,A549 NSCLC,13.8 µM
same,GI50,ACHN renal,4.75 µM
same,TGI,ACHN renal,18.7 µM
same,GI50,BT-549 breast,2.95 µM
same,TGI,BT-549 breast,10.4 µM
same,GI50,CAKI-1 renal,1.83 µM
same,TGI,CAKI-1 renal,4.22 µM
same,GI50,CCRF-CEM leukemia,2.39 µM
same,TGI,CCRF-CEM leukemia,11.2 µM
same,GI50,COLO 205 colon,2.94 µM
same,TGI,COLO 205 colon,9.17 µM
same,GI50,DU-145 prostate,4.33 µM
same,TGI,DU-145 prostate,14.9 µM
same,GI50,EKVX NSCLC,2.96 µM
same,TGI,EKVX NSCLC,8.01 µM
same,GI50,HCC-2998 colon,3.57 µM
same,TGI,HCC-2998 colon,14.1 µM
same,GI50,HCT-116 colon,3.33 µM
same,TGI,HCT-116 colon,12.2 µM
same,GI50,HCT-15 colon,3.59 µM
same,TGI,HCT-15 colon,16.1 µM
same,GI50,HL-60(TB) leukemia,4.01 µM
same,TGI,HL-60(TB) leukemia,9.9 µM
same,GI50,HOP-62 NSCLC,4.66 µM
same,TGI,HOP-62 NSCLC,15.5 µM
same,GI50,HOP-92 NSCLC,2.56 µM
same,TGI,HOP-92 NSCLC,7.61 µM
same,GI50,HS 578T breast,3 µM
same,TGI,HS 578T breast,> 100 µM
same,GI50,HT29 colon,3.79 µM
same,TGI,HT29 colon,12.2 µM
same,GI50,IGROV1 ovarian,2.96 µM
same,TGI,IGROV1 ovarian,8.5 µM
same,GI50,K-562 leukemia,3.26 µM
same,TGI,K-562 leukemia,11.2 µM
same,GI50,KM12 colon,3.7 µM
same,TGI,KM12 colon,13.2 µM
same,GI50,LOX IMVI melanoma,2.63 µM
same,TGI,LOX IMVI melanoma,12.3 µM
same,GI50,M14 melanoma,3.82 µM
same,TGI,M14 melanoma,16.6 µM
same,GI50,MALME-3M melanoma,1.94 µM
same,TGI,MALME-3M melanoma,4.6 µM
same,GI50,MCF7 breast,3.55 µM
same,TGI,MCF7 breast,13 µM
same,GI50,MDA-MB-231 breast,4.3 µM
same,TGI,MDA-MB-231 breast,15.3 µM
same,GI50,MDA-MB-435,2.91 µM
same,TGI,MDA-MB-435,10.4 µM
same,GI50,MOLT-4 leukemia,3.91 µM
same,TGI,MOLT-4 leukemia,11 µM
same,GI50,NCI-H226 lung,3.33 µM
same,TGI,NCI-H226 lung,22 µM
same,GI50,NCI-H23 lung,3.3 µM
same,TGI,NCI-H23 lung,12.2 µM
same,GI50,NCI-H460 lung,3.27 µM
same,TGI,NCI-H460 lung,12.3 µM
same,GI50,NCI-H522 lung,1.86 µM
same,TGI,NCI-H522 lung,4.1 µM
same,GI50,NCI/ADR-RES ovarian,3.19 µM
same,TGI,NCI/ADR-RES ovarian,16.6 µM
same,GI50,OVCAR-3 ovarian,3.62 µM
same,TGI,OVCAR-3 ovarian,12.4 µM
same,GI50,OVCAR-4 ovarian,4.45 µM
same,TGI,OVCAR-4 ovarian,19 µM
same,GI50,OVCAR-5 ovarian,7.29 µM
same,TGI,OVCAR-5 ovarian,26.1 µM
same,GI50,OVCAR-8 ovarian,3.37 µM
same,TGI,OVCAR-8 ovarian,13.1 µM
same,GI50,PC-3 prostate,3.05 µM
same,TGI,PC-3 prostate,9.92 µM
same,GI50,RPMI-8226 leukemia,2.41 µM
same,TGI,RPMI-8226 leukemia,5.85 µM
same,GI50,RXF 393 renal,3.03 µM
same,TGI,RXF 393 renal,10.7 µM
same,GI50,SK-MEL-2 melanoma,2.99 µM
same,TGI,SK-MEL-2 melanoma,8.04 µM
same,GI50,SK-MEL-28 melanoma,2.81 µM
same,TGI,SK-MEL-28 melanoma,8.57 µM
same,GI50,SK-MEL-5 melanoma,1.78 µM
same,TGI,SK-MEL-5 melanoma,4.36 µM
same,GI50,SK-OV-3 ovarian,3.79 µM
same,TGI,SK-OV-3 ovarian,14 µM
same,GI50,SN12C renal,3.91 µM
same,TGI,SN12C renal,14.9 µM
same,GI50,SR leukemia,2.88 µM
same,TGI,SR leukemia,7.36 µM
same,GI50,SW-620 colon,4.01 µM
same,TGI,SW-620 colon,16.5 µM
same,GI50,T-47D breast,3.81 µM
same,TGI,T-47D breast,13.2 µM
same,GI50,TK-10 renal,3.85 µM
same,TGI,TK-10 renal,14.3 µM
same,GI50,UACC-257 melanoma,3.12 µM
same,TGI,UACC-257 melanoma,11.8 µM
same,GI50,UACC-62 melanoma,2.55 µM
same,TGI,UACC-62 melanoma,7.45 µM
same,GI50,UO-31 renal,2.62 µM
same,TGI,UO-31 renal,16.1 µM
NC1=NC(c2ccccc2Cl)c2c(n[nH]c2N)N1 (centres undefined),GI50,786-0 renal,9.18 µM
same,TGI,786-0 renal,> 100 µM
same,GI50,A498 renal,17.5 µM
same,TGI,A498 renal,> 100 µM
same,GI50,A549 NSCLC,6.96 µM
same,TGI,A549 NSCLC,> 100 µM
same,GI50,ACHN renal,34.6 µM
same,TGI,ACHN renal,> 100 µM
same,GI50,BT-549 breast,27.4 µM
same,TGI,BT-549 breast,> 100 µM
same,GI50,CAKI-1 renal,10.9 µM
same,TGI,CAKI-1 renal,> 100 µM
same,GI50,CCRF-CEM leukemia,4.59 µM
same,TGI,CCRF-CEM leukemia,> 100 µM
same,GI50,COLO 205 colon,23.9 µM
same,TGI,COLO 205 colon,> 100 µM
same,GI50,DU-145 prostate,61 µM
same,TGI,DU-145 prostate,> 100 µM
same,GI50,EKVX NSCLC,44.2 µM
same,TGI,EKVX NSCLC,> 100 µM
same,GI50,HCC-2998 colon,65 µM
same,TGI,HCC-2998 colon,> 100 µM
same,GI50,HCT-116 colon,7.77 µM
same,TGI,HCT-116 colon,> 100 µM
same,GI50,HCT-15 colon,30.8 µM
same,TGI,HCT-15 colon,> 100 µM
same,GI50,HOP-62 NSCLC,80.1 µM
same,TGI,HOP-62 NSCLC,> 100 µM
same,GI50,HOP-92 NSCLC,18.2 µM
same,TGI,HOP-92 NSCLC,> 100 µM
same,GI50,HS 578T breast,> 100 µM
same,TGI,HS 578T breast,> 100 µM
same,GI50,IGROV1 ovarian,9.48 µM
same,TGI,IGROV1 ovarian,> 100 µM
same,GI50,K-562 leukemia,4.52 µM
same,TGI,K-562 leukemia,> 100 µM
same,GI50,KM12 colon,29.4 µM
same,TGI,KM12 colon,> 100 µM
same,GI50,LOX IMVI melanoma,2.98 µM
same,TGI,LOX IMVI melanoma,> 100 µM
same,GI50,M14 melanoma,18.1 µM
same,TGI,M14 melanoma,> 100 µM
same,GI50,MALME-3M melanoma,61.3 µM
same,TGI,MALME-3M melanoma,> 100 µM
same,GI50,MCF7 breast,7.09 µM
same,TGI,MCF7 breast,> 100 µM
same,GI50,MDA-MB-231 breast,5.95 µM
same,TGI,MDA-MB-231 breast,> 100 µM
same,GI50,MDA-MB-435,15 µM
same,TGI,MDA-MB-435,> 100 µM
same,GI50,MOLT-4 leukemia,22.5 µM
same,TGI,MOLT-4 leukemia,> 100 µM
same,GI50,NCI-H226 lung,38.4 µM
same,TGI,NCI-H226 lung,> 100 µM
same,GI50,NCI-H23 lung,20.3 µM
same,TGI,NCI-H23 lung,> 100 µM
same,GI50,NCI-H460 lung,5.9 µM
same,TGI,NCI-H460 lung,> 100 µM
same,GI50,NCI-H522 lung,19.6 µM
same,TGI,NCI-H522 lung,> 100 µM
same,GI50,NCI/ADR-RES ovarian,30.4 µM
same,TGI,NCI/ADR-RES ovarian,> 100 µM
same,GI50,OVCAR-3 ovarian,32.1 µM
same,TGI,OVCAR-3 ovarian,> 100 µM
same,GI50,OVCAR-4 ovarian,> 100 µM
same,TGI,OVCAR-4 ovarian,> 100 µM
same,GI50,OVCAR-5 ovarian,50.2 µM
same,TGI,OVCAR-5 ovarian,> 100 µM
same,GI50,OVCAR-8 ovarian,45.6 µM
same,TGI,OVCAR-8 ovarian,> 100 µM
same,GI50,PC-3 prostate,85.8 µM
same,TGI,PC-3 prostate,> 100 µM
same,GI50,RPMI-8226 leukemia,42.9 µM
same,TGI,RPMI-8226 leukemia,> 100 µM
same,GI50,RXF 393 renal,13.7 µM
same,TGI,RXF 393 renal,97.6 µM
same,GI50,SF-268 CNS,26.9 µM
same,TGI,SF-268 CNS,> 100 µM
same,GI50,SF-295 CNS,16.7 µM
same,TGI,SF-295 CNS,> 100 µM
same,GI50,SF-539 CNS,57 µM
same,TGI,SF-539 CNS,> 100 µM
same,GI50,SK-MEL-2 melanoma,65.3 µM
same,TGI,SK-MEL-2 melanoma,> 100 µM
same,GI50,SK-MEL-28 melanoma,42.5 µM
same,TGI,SK-MEL-28 melanoma,> 100 µM
same,GI50,SK-MEL-5 melanoma,29.2 µM
same,TGI,SK-MEL-5 melanoma,> 100 µM
same,GI50,SK-OV-3 ovarian,> 100 µM
same,TGI,SK-OV-3 ovarian,> 100 µM
same,GI50,SN12C renal,8.35 µM
same,TGI,SN12C renal,> 100 µM
same,GI50,SNB-19 CNS,39.7 µM
same,TGI,SNB-19 CNS,> 100 µM
same,GI50,SNB-75 CNS,48 µM
same,TGI,SNB-75 CNS,> 100 µM
same,GI50,SW-620 colon,18.9 µM
same,TGI,SW-620 colon,> 100 µM
same,GI50,T-47D breast,26.1 µM
same,TGI,T-47D breast,> 100 µM
same,GI50,TK-10 renal,> 100 µM
same,TGI,TK-10 renal,> 100 µM
same,GI50,U251 CNS,28 µM
same,TGI,U251 CNS,> 100 µM
same,GI50,UACC-257 melanoma,94.6 µM
same,TGI,UACC-257 melanoma,> 100 µM
same,GI50,UACC-62 melanoma,13.5 µM
same,TGI,UACC-62 melanoma,> 100 µM
same,GI50,UO-31 renal,9.21 µM
same,TGI,UO-31 renal,> 100 µM
